Results: the supplement of paper PMC8671470

Tests used:
Conditions in all cases: 72 h
[1] = test system: myeloid leukemia patient primary cells Pat.10; experiment: cell viability (% survival relative to DMSO control); higher = less cytotoxic
Outline: (§1)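 Seventy compounds were pre-printed on 384-well plates at five tenfold concentrations between 1 and 10,000 nM, in duplicate. Thawed mononuclear cells purified by Ficoll from AML or CML patients were added at 10,000 cells/well in RPMI 1640 with 10% FBS for 72 h. Viability by CellTiter-Glo was normalised to DMSO and 10 μM proteasome-inhibitor wells. Where stated, area under the curve was taken from log-logistic fits made with the drc and PharmacoGx R packages, each fit having four parameters.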

[2] = test system: myeloid leukemia patient primary cells Pat.11; experiment: as above
Outline: as §1

[3] = test system: myeloid leukemia patient primary cells Pat.12; experiment: as above
Outline: as §1

[4] = test system: myeloid leukemia patient primary cells Pat.13; experiment: as above
Outline: as §1

[5] = test system: myeloid leukemia patient primary cells Pat.14; experiment: as above
Outline: as §1

[6] = test system: myeloid leukemia patient primary cells Pat.15; experiment: as above
Outline: as §1

[7] = test system: myeloid leukemia patient primary cells Pat.1; experiment: as above
Outline: as §1

[8] = test system: myeloid leukemia patient primary cells Pat.2; experiment: as above
Outline: as §1

[9] = test system: myeloid leukemia patient primary cells Pat.3; experiment: as above
Outline: as §1

[10] = test system: myeloid leukemia patient primary cells Pat.4; experiment: as above
Outline: as §1

[11] = test system: myeloid leukemia patient primary cells Pat.5; experiment: as above
Outline: as §1

[12] = test system: myeloid leukemia patient primary cells Pat.6; experiment: as above
Outline: as §1

[13] = test system: myeloid leukemia patient primary cells Pat.7; experiment: as above
Outline: as §1

[14] = test system: myeloid leukemia patient primary cells Pat.8; experiment: as above
Outline: as §1

[15] = test system: myeloid leukemia patient primary cells Pat.9; experiment: as above
Outline: as §1

KU-812 = experiment: cell viability (% survival relative to DMSO control, bortezomib = 0%); higher = less cytotoxic
Outline: (§2)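 After 72 h at 37 °C with 5% CO2, cell viability in 384-well plates was measured by CellTiter-Glo luminescence. The plates held compounds pre-printed at 1, 10, 100, 1000 or 10000 nM in duplicate, and cells from 10 AML and 5 CML lines seeded at densities titrated to linear growth. Percent survival is the duplicate mean, normalised to vehicle as 100% and a 10 µM positive control as 0%.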

MOLM-13 = experiment: as above
Outline: as §2

NOMO-1 = experiment: as above
Outline: as §2

THP-1 = experiment: as above
Outline: as §2

SMILES: O=C(c1c2ccccc2cc2ccccc12)N1CCC(N2CCC[C@@H](C(=O)N3CCOCC3)C2)CC1
- cell viability ([1]; 1 nM): 88.3%
- cell viability ([1]; 10 nM): 67.9%
- cell viability ([1]; 100 nM): 78.7%
- cell viability ([1]; 1000 nM): 29.7%
- cell viability ([1]; 10000 nM): 80.8%
- cell viability ([2]; 1 nM): 99.3%
- cell viability ([2]; 10 nM): > 100%
- cell viability ([2]; 100 nM): 92.5%
- cell viability ([2]; 1000 nM): 72.6%
- cell viability ([2]; 10000 nM): 98%
- cell viability ([3]; 1 nM): > 100%
- cell viability ([3]; 10 nM): 92%
- cell viability ([3]; 100 nM): 99.7%
- cell viability ([3]; 1000 nM): 80.6%
- cell viability ([3]; 10000 nM): 96.9%
- cell viability ([4]; 1 nM): 85.6%
- cell viability ([4]; 10 nM): 89.6%
- cell viability ([4]; 100 nM): 92.9%
- cell viability ([4]; 1000 nM): 62.8%
- cell viability ([4]; 10000 nM): 86.7%
- cell viability ([5]; 1 nM): 88.9%
- cell viability ([5]; 10 nM): 98.9%
- cell viability ([5]; 100 nM): 98.2%
- cell viability ([5]; 1000 nM): 56.4%
- cell viability ([5]; 10000 nM): 94.4%
- cell viability ([6]; 1 nM): 93.9%
- cell viability ([6]; 10 nM): 94.5%
- cell viability ([6]; 100 nM): 84.5%
- cell viability ([6]; 1000 nM): 71.3%
- cell viability ([6]; 10000 nM): 88.6%
- cell viability ([7]; 1 nM): > 100%
- cell viability ([7]; 10 nM): 83%
- cell viability ([7]; 100 nM): > 100%
- cell viability ([7]; 1000 nM): 58.3%
- cell viability ([7]; 10000 nM): 96.7%
- cell viability ([8]; 1 nM): 94.4%
- cell viability ([8]; 10 nM): 99.4%
- cell viability ([8]; 100 nM): 98%
- cell viability ([8]; 1000 nM): 75.4%
- cell viability ([8]; 10000 nM): 98.1%
- cell viability ([9]; 1 nM): > 100%
- cell viability ([9]; 10 nM): 96.9%
- cell viability ([9]; 100 nM): > 100%
- cell viability ([9]; 1000 nM): 52.6%
- cell viability ([9]; 10000 nM): 78.8%
- cell viability ([10]; 1 nM): 92.6%
- cell viability ([10]; 10 nM): 95%
- cell viability ([10]; 100 nM): 90.2%
- cell viability ([10]; 1000 nM): 65.1%
- cell viability ([10]; 10000 nM): 60.7%
- cell viability ([11]; 1 nM): 89.3%
- cell viability ([11]; 10 nM): 67.2%
- cell viability ([11]; 100 nM): 94.9%
- cell viability ([11]; 1000 nM): 0.265%
- cell viability ([11]; 10000 nM): 69.8%
- cell viability ([12]; 1 nM): 99.8%
- cell viability ([12]; 10 nM): 96.8%
- cell viability ([12]; 100 nM): 96.6%
- cell viability ([12]; 1000 nM): 74.9%
- cell viability ([12]; 10000 nM): 96.6%
- cell viability ([13]; 1 nM): 94.1%
- cell viability ([13]; 10 nM): 87.2%
- cell viability ([13]; 100 nM): 87.3%
- cell viability ([13]; 1000 nM): 19%
- cell viability ([13]; 10000 nM): 76.8%
- cell viability ([14]; 1 nM): 87.7%
- cell viability ([14]; 10 nM): > 100%
- cell viability ([14]; 100 nM): 93.3%
- cell viability ([14]; 1000 nM): 69.3%
- cell viability ([14]; 10000 nM): 87.5%
- cell viability ([15]; 1 nM): 63.1%
- cell viability ([15]; 10 nM): 88.4%
- cell viability ([15]; 100 nM): 77.5%
- cell viability ([15]; 1000 nM): 2.84%
- cell viability ([15]; 10000 nM): 71.4%
- cell viability (KU-812; 1 nM): 100%
- cell viability (KU-812; 10 nM): 108%
- cell viability (KU-812; 100 nM): 103%
- cell viability (KU-812; 1000 nM): 95.3%
- cell viability (KU-812; 10000 nM): 96%
- cell viability (MOLM-13; 1 nM): 122%
- cell viability (MOLM-13; 10 nM): 103%
- cell viability (MOLM-13; 100 nM): 109%
- cell viability (MOLM-13; 1000 nM): 62.4%
- cell viability (MOLM-13; 10000 nM): 53.7%
- cell viability (NOMO-1; 1 nM): 106%
- cell viability (NOMO-1; 10 nM): 108%
- cell viability (NOMO-1; 100 nM): 104%
- cell viability (NOMO-1; 1000 nM): 99.6%
- cell viability (NOMO-1; 10000 nM): 95.2%
- cell viability (THP-1; 1 nM): 106%
- cell viability (THP-1; 10 nM): 96.6%
- cell viability (THP-1; 100 nM): 115%
- cell viability (THP-1; 1000 nM): 94.9%
- cell viability (THP-1; 10000 nM): 100%
